# Source: PubChem BioAssay AID2060897 (Molecular Pharmacology Branch, DTP, NCI, 2025)
# pIC50: −log10 of the molar value.
# Test system: 966289-007-R4-J1-PDC complex spheroid viability
# Experiment: Anticancer human tumor 966289-007-R4-J1-PDC patient-derived pancreatic adenocarcinoma cell line growth inhibition [RAS]
# Conditions: for pIC50: curve of first compound; for viability, T/C: stronger effect = lower value
# Excerpt: RAS pathway inhibitors in Combinations in Complex Spheroids
# A high-throughput screen of multi-cell type tumor spheroids was designed to identify active combinations of RAS pathway inhibitors and targeted small molecules. Complex spheroids include a stromal component modeled by human endothelial cells (HUVEC) and fibroblasts modeled by human mesenchymal stem cells (MSCs). The concentration ranges selected for each drug and investigational agent were based upon clinically achievable concentrations if the clinical Cmax of the agent was known.
# Compounds. The drugs and investigational agents: abemaciclib (NSC768073), cobimetinib (NSC768068), divarasib (GDC6063, NSC841802), docetaxel (NSC628503), GDC-1971 (RLY-1971, NSC841576), gemcitabine (NSC613327), inavolisib (NSC800729), ipatasertib (NSC767898), KB-0742 (NSC834161), MRTX-1133 (NSC836407), osimertinib (NSC779217), RMC-4630 (NSC839698), RMC-6236 (NSC851965), RMC-6291 (NSC852671), Ro-3306 (NSC812927), sapanisertib (NSC764658), SN-38 (NSC673596), staurosporine (NSC755774), SY5609 (NSC837396), and tovorafenib (DAY101, NSC766906), were obtained from the National Cancer Institute (NCI) Developmental Therapeutics Program Chemical Repository. The FDA-approved anticancer drug set is available from the NCI Developmental Therapeutics Program. […] The stock solutions were prepared in dimethyl sulfoxide (DMSO, Sigma-Aldrich, St. Louis, MO, cat. D2650) at 800-fold the tested concentration and stored at -70 degrees C prior to their use. All drugs and investigational agents were tested over a range starting from a high concentration at or near the clinical Cmax and decreasing in half-log increments. If the clinical Cmax for an agent had not been determined, the highest concentration tested was 10 microM.
# Cell Culture. All cells were maintained in an incubator at 37 degrees C and 5% CO2 with 95% humidity. The PDC lines were cultured according to standard operating procedures established by the NCI PDMR. All PDCs were thawed and cultured in Matrigel-coated flasks prepared with a working solution of 1X Ham's F-12 nutrient mix, without supplementation (Invitrogen, Waltham, MA, cat. 11765054), 100 U/mL penicillin-streptomycin (Invitrogen, cat. 15140122), and 2.5% Matrigel (Corning Inc., Corning, NY, cat. 354248) for the first three passages. The 362531-283-R-J2-PDC and 782815-120-R-J1-PDC lines were cultured in 6C/Colon 1B media, which includes advanced DMEM/F-12 (Thermo Fisher Scientific, cat. 12634028), 10 mM HEPES (Thermo Fisher Scientific, cat. 15630080), 1X GlutaMAX supplement (Thermo Fisher Scientific, cat. 35050061), 0.1 mg/mL primocin (InvivoGen, San Diego, CA, cat. ant-pm-2), 10% defined fetal bovine serum, heat inactivated (HyClone Laboratories Inc., Logan, UT, cat. SH30070.03HI), 50% L-WRN conditioned media (ATCC, cat. CRL-3276), 1.25 mM N-Acetyl-L-cysteine (Sigma-Aldrich, cat. A9165), 10 mM nicotinamide (Sigma-Aldrich, cat. N0636), 1X B-27 supplement (Thermo Fisher Scientific, cat. 17504044), 1X N-2 supplement (Thermo Fisher Scientific, cat. 17502048), 50 ng/mL human EGF (Thermo Fisher Scientific, cat. PHG0311), and 10 microM Y-27632 dihydrochloride (Tocris Bioscience, cat. 1254). The K12877-001-R-J1-PDC line was cultured in 6I media, which includes all 6C/Colon 1B media plus 10 ng/mL human FGF-10 (PeproTech, cat. 100-26), 1 ng/mL human FGF-2 (PeproTech, cat. 100-18B), 1 µM prostaglandin E2 (Tocris Bioscience, cat. 2296), […] hydrocortisone (Sigma-Aldrich, cat. H4001), and […] bovine insulin (Sigma-Aldrich, cat. I6634). The K86415-001-R-J1-PDC line was cultured in 6D media, which includes all 6C/Colon 1B media components minus the L-WRN conditioned media. The 485176-168-R4-J1-PDC was cultured in PANC media, which includes all 6C/Colon 1B media plus 100 ng/mL human FGF-10 (PeproTech, cat. 100-26), 500 nM SB-431542 (Selleckchem, cat. S1067), and 10 nM gastrin (Tocris Bioscience, cat. 3006). […]
# 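Note: spheroids exposed to agents for one week before readout.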
# 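Throughout, for viability, T/C: percent viability relative to DMSO vehicle control wells as 100%.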
smiles,measurement,setting,value
C=CC(=O)N1CCN(c2nc(OCC3CCCN3C)nc3c(F)c(-c4nc(N)cc(C)c4C(F)(F)F)c(Cl)cc23)C(C)C1 (configuration not stated) + C#Cc1c(F)ccc2cc(O)cc(-c3ncc4c(N5CC6CCC(C5)N6)nc(OCC56CCCN5CC(F)C6)nc4c3F)c12,pIC50,second compound 0.0316 µM,< 6.00
same,pIC50,second compound 0.1 µM,< 6.00
same,pIC50,second compound 0.316 µM,< 6.00
same,pIC50,second compound 1 µM,< 6.00
same,pIC50,second compound 3.16 µM,< 6.00
same,pIC50,second compound 10 µM,< 6.00
same,"viability, T/C","second compound 0.0316 µM, first compound 0.00316 µM",106%
same,"viability, T/C","second compound 0.0316 µM, first compound 0.01 µM",99.5%
same,"viability, T/C","second compound 0.0316 µM, first compound 0.0316 µM",88.7%
same,"viability, T/C","second compound 0.0316 µM, first compound 0.1 µM",98.2%
same,"viability, T/C","second compound 0.0316 µM, first compound 0.316 µM",108%
same,"viability, T/C","second compound 0.0316 µM, first compound 1 µM",91.5%
same,"viability, T/C","second compound 0.1 µM, first compound 0.00316 µM",108%
same,"viability, T/C","second compound 0.1 µM, first compound 0.01 µM",107%
same,"viability, T/C","second compound 0.1 µM, first compound 0.0316 µM",91.1%
same,"viability, T/C","second compound 0.1 µM, first compound 0.1 µM",95.9%
same,"viability, T/C","second compound 0.1 µM, first compound 0.316 µM",83.8%
same,"viability, T/C","second compound 0.1 µM, first compound 1 µM",83.3%
same,"viability, T/C","second compound 0.316 µM, first compound 0.00316 µM",105%
same,"viability, T/C","second compound 0.316 µM, first compound 0.01 µM",99.5%
same,"viability, T/C","second compound 0.316 µM, first compound 0.0316 µM",102%
same,"viability, T/C","second compound 0.316 µM, first compound 0.1 µM",99.7%
same,"viability, T/C","second compound 0.316 µM, first compound 0.316 µM",97%
same,"viability, T/C","second compound 0.316 µM, first compound 1 µM",80.7%
same,"viability, T/C","second compound 1 µM, first compound 0.00316 µM",97%
same,"viability, T/C","second compound 1 µM, first compound 0.01 µM",111%
same,"viability, T/C","second compound 1 µM, first compound 0.0316 µM",117%
same,"viability, T/C","second compound 1 µM, first compound 0.1 µM",103%
same,"viability, T/C","second compound 1 µM, first compound 0.316 µM",92.5%
same,"viability, T/C","second compound 1 µM, first compound 1 µM",96.8%
same,"viability, T/C","second compound 3.16 µM, first compound 0.00316 µM",96.9%
same,"viability, T/C","second compound 3.16 µM, first compound 0.01 µM",107%
same,"viability, T/C","second compound 3.16 µM, first compound 0.0316 µM",113%
same,"viability, T/C","second compound 3.16 µM, first compound 0.1 µM",102%
same,"viability, T/C","second compound 3.16 µM, first compound 0.316 µM",110%
same,"viability, T/C","second compound 3.16 µM, first compound 1 µM",92.7%
same,"viability, T/C","second compound 10 µM, first compound 0.00316 µM",118%
same,"viability, T/C","second compound 10 µM, first compound 0.01 µM",82.8%
same,"viability, T/C","second compound 10 µM, first compound 0.0316 µM",91.6%
same,"viability, T/C","second compound 10 µM, first compound 0.1 µM",96.4%
same,"viability, T/C","second compound 10 µM, first compound 0.316 µM",89.9%
same,"viability, T/C","second compound 10 µM, first compound 1 µM",92.2%
